In patent US20150212068A1, “Cholyl-L-Lysyl-Fluorescein Assay” (Novassay SA, priority 2012, published 2015):

Key:
[1] = Stability of buffer-based CLF standards after 4 weeks storage at 2-8° C., CLF ELISA; format: physicochemical; conditions: for mean OD, fresh: freshly made; for decrease in immunoreactivity: buffer-based CLF standards
Description: (§1) These conditions were used for all assays described in Phase 2a (above) and Phase 2b (below). See Appendix B and C for buffer and conjugate formulations respectively: • Add 25 μl/well of sample or standard (0-1000 ng/ml CLF in Buffer #24) to the wells of a streptavidin-coated microtitre plate (NovAssay, F2SAC). • Add 100 μl/well of fluorescein-biotin (Sigma B9431) at 20 ng/ml in Buffer #24+0.2% w/v ANS (Sigma 10417). • Add 100 μl/well of anti-fluorescein HRP (NovAssay, DV047/17-3) at 100 ng/ml in Buffer #24. • Incubate the plate for 30 minutes at room temperature. • Wash the plate 3 times with 800 μl/well Buffer #29 and tap the plate dry. • Add 100 μl/well of SureBlue Reserve TMB Substrate (KPL) and incubate the plate for 10 minutes at room temperature. • Stop the substrate reaction by adding 100 μl/well of 1M HCl and read the absorbance at 450 nm wavelength (ThermoFisher Scientific, Multiskan FC).
Standards were prepared by spiking CLF into buffer (6 standards having a concentration span of 0 to 1000 ng/ml). The standards were stored at 2-8° C. for 4 weeks. They were then taken out of the fridge and assayed alongside standards that were freshly made.

[2] = Stability of CLF-spiked serum samples after 12 day storage at 2-8° C., CLF ELISA; format: in vitro ADME, human
Description: as §1
Sample drift was assessed by using two sera spiked with CLF to 4 levels (62.5, 125, 250 and 500 ng/ml). Each of the samples were added to streptavidin coated wells (in duplicate) soon after the addition of the standards (time 0, in columns 5&6)); after 5 minutes the samples were added to columns 7&8; “5 minute” time point” 5 minutes later in columns 9&10 (“10 minute time point” and 5 minutes later in columns 11&12 (“15 minute time point”). The samples used were prepared 12 days prior to the experiment and were kept at 2-8° C. In addition, some other serum samples that were spiked with CLF at the same time (12 days prior to the assay) were also measured in order to determine the stability of CLF (note: The data obtained are the results of 2 variables (instability of CLF and the recovery) and thus represent a “worst case scenario”.
The level of instability (after 12 day storage at 2-8° C.) was calculated by comparing the results obtained with the expected results.

[3] = Fresh std 16 ng/ml, 4 weeks at 2-8° C.
[4] = Fresh std 31 ng/ml, 4 weeks at 2-8° C.
[5] = Fresh std 63 ng/ml, 4 weeks at 2-8° C.
[6] = Fresh std 125 ng/ml, 4 weeks at 2-8° C.
[7] = Fresh std 250 ng/ml, 4 weeks at 2-8° C.
[8] = Fresh std 500 ng/ml, 4 weeks at 2-8° C.
[9] = Fresh std 1000 ng/ml, 4 weeks at 2-8° C.
[10] = 12 day storage at 2-8° C., pool1, Expected 125 ng/ml
[11] = 12 day storage at 2-8° C., pool2, Expected 31.25 ng/ml
[12] = 12 day storage at 2-8° C., pool3, Expected 500 ng/ml
[13] = 12 day storage at 2-8° C., sample 5876, Expected 1000 ng/ml
[14] = 12 day storage at 2-8° C., sample 5881, Expected 1000 ng/ml
[15] = 12 day storage at 2-8° C., sample 5883, Expected 500 ng/ml
[16] = 12 day storage at 2-8° C., sample 5883, Expected 1000 ng/ml
[17] = 12 day storage at 2-8° C., sample 5884, Expected 62.5 ng/ml
[18] = 12 day storage at 2-8° C., sample 5884, Expected 125 ng/ml
[19] = 12 day storage at 2-8° C., sample 5884, Expected 250 ng/ml
[20] = 12 day storage at 2-8° C., sample 5884, Expected 500 ng/ml
[21] = 12 day storage at 2-8° C., sample 5885, Expected 62.5 ng/ml
[22] = 12 day storage at 2-8° C., sample 5885, Expected 125 ng/ml
[23] = 12 day storage at 2-8° C., sample 5885, Expected 250 ng/ml
[24] = 12 day storage at 2-8° C., sample 5885, Expected 500 ng/ml
[25] = 12 day storage at 2-8° C., sample 5885, Expected 1000 ng/ml

For `CC(CCC(=O)NC(CCCCNC(=S)Nc1ccc(-c2c3ccc(=O)cc-3oc3cc(O)ccc23)c(C(=O)O)c1)C(=O)O)C1CCC2C3C(O)CC4CC(O)CCC4(C)C3CC(O)C12C` [CLF, Cholyl-L-Lysyl-Fluorescein], the “4-week stds” value [1, 3] was 5 ng/mL, the “% change in CLF immunoreactivity” value [1, 3] was −67% and the “4-week stds” value [1, 4] was 17 ng/mL. For the same compound, the “% change in CLF immunoreactivity” value [1, 4] was −44%, the “4-week stds” value [1, 5] was 38 ng/mL and the “% change in CLF immunoreactivity” value [1, 5] was −40%. For the same compound, the “4-week stds” value [1, 6] was 72 ng/mL, the “% change in CLF immunoreactivity” value [1, 6] was −42% and the “4-week stds” value [1, 7] was 162 ng/mL. For the same compound, the “% change in CLF immunoreactivity” value [1, 7] was −35%, the “4-week stds” value [1, 8] was 359 ng/mL and the “% change in CLF immunoreactivity” value [1, 8] was −28%. The “4-week stds” value [1, 9] was 685 ng/mL, the “% change in CLF immunoreactivity” value [1, 9] was −31% and the “mean OD, 4-week old stds” value ([1]; buffer standard 16 ng/ml, 4 weeks at 2-8° C.) was 3.219. The “mean OD, fresh” value ([1]; buffer standard 16 ng/ml) was 2.745, the “mean OD, 4-week old stds” value ([1]; buffer standard 31 ng/ml, 4 weeks at 2-8° C.) was 2.699 and the “mean OD, fresh” value ([1]; buffer standard 31 ng/ml) was 2.265. The “mean OD, 4-week old stds” value ([1]; buffer standard 63 ng/ml, 4 weeks at 2-8° C.) was 2.133, the “mean OD, fresh” value ([1]; buffer standard 63 ng/ml) was 1.653 and the “mean OD, 4-week old stds” value ([1]; buffer standard 125 ng/ml, 4 weeks at 2-8° C.) was 1.577. The “mean OD, fresh” value ([1]; buffer standard 125 ng/ml) was 0.884, the “mean OD, 4-week old stds” value ([1]; buffer standard 250 ng/ml, 4 weeks at 2-8° C.) was 0.953 and the “mean OD, fresh” value ([1]; buffer standard 250 ng/ml) was 0.661. The “mean OD, 4-week old stds” value ([1]; buffer standard 500 ng/ml, 4 weeks at 2-8° C.) was 0.528, the “mean OD, fresh” value ([1]; buffer standard 500 ng/ml) was 0.419 and the “mean OD, 4-week old stds” value ([1]; buffer standard 1000 ng/ml, 4 weeks at 2-8° C.) was 0.317. The “mean OD, fresh” value ([1]; buffer standard 1000 ng/ml) was 0.235, the decrease in immunoreactivity ([1]; 4 weeks at 2-8 C.) was “resulted in a 30-40% decrease in” and the decrease in immunoreactivity ([1]; 4 weeks at 2-8° C., vs fresh standards) was 30-40%. For the same compound, the “Difference, mean” value ([2]; 12 day storage at 2-8° C., mean of all samples) was −27%, the Difference [2, 10] was −39% and the observed [2, 10] was 76 ng/mL. For the same compound, the Difference [2, 11] was −14%, the observed [2, 11] was 27 ng/mL and the Difference [2, 12] was −27%. For the same compound, the observed [2, 12] was 365 ng/mL, the Difference [2, 13] was −24% and the observed [2, 13] was 756 ng/mL. It also gave a Difference [2, 14] of −18%, an observed [2, 14] of 820 ng/mL and a Difference [2, 15] of −25%. For the same compound, the observed [2, 15] was 375 ng/mL, the Difference [2, 16] was −10% and the observed [2, 16] was 903 ng/mL. The Difference [2, 17] was −29%, the observed [2, 17] was 44 ng/mL and the Difference [2, 18] was −36%. It also gave an observed [2, 18] of 80 ng/mL, a Difference [2, 19] of −39% and an observed [2, 19] of 153 ng/mL. For the same compound, the Difference [2, 20] was −32%, the observed [2, 20] was 340 ng/mL and the Difference [2, 21] was −27%. The observed [2, 21] was 46 ng/mL, the Difference [2, 22] was −33% and the observed [2, 22] was 84 ng/mL. It also gave a Difference [2, 23] of −29%, an observed [2, 23] of 177 ng/mL and a Difference [2, 24] of −24%. The observed [2, 24] was 379 ng/mL, the Difference [2, 25] was −20% and the observed [2, 25] was 804 ng/mL. For the same compound, the “reduction in measured CLF (mean)” value ([2]; samples kept at 2-8 C. for 12 days) was 27%) occurs when samples are kept and the “reduction in measured CLF (mean)” value ([2]; spiked serum samples kept at 2-8° C. for 12 days, vs expected) was 27%.
